Among the data in US7598258B2, “Quinoline derivatives and quinazoline derivatives inhibiting autophosphorylation of macrophage colony stimulating factor receptor” (Kirin Beer Kabushiki Kaisha, priority 2002, dated 2009) are IC50 values, retold here.

The target of the experiment is T1, mouse c-fms (Mus musculus, UniProt P09581).
T1 construct: Macrophage-like cell line BAC-1.2F5 which expresses c-fms as a M-CSF receptor on cell membranes; endogenous in cells; host or cells: BAC-1.2F5 mouse macrophage-like cell line
T1 sequence (P09581 20-977): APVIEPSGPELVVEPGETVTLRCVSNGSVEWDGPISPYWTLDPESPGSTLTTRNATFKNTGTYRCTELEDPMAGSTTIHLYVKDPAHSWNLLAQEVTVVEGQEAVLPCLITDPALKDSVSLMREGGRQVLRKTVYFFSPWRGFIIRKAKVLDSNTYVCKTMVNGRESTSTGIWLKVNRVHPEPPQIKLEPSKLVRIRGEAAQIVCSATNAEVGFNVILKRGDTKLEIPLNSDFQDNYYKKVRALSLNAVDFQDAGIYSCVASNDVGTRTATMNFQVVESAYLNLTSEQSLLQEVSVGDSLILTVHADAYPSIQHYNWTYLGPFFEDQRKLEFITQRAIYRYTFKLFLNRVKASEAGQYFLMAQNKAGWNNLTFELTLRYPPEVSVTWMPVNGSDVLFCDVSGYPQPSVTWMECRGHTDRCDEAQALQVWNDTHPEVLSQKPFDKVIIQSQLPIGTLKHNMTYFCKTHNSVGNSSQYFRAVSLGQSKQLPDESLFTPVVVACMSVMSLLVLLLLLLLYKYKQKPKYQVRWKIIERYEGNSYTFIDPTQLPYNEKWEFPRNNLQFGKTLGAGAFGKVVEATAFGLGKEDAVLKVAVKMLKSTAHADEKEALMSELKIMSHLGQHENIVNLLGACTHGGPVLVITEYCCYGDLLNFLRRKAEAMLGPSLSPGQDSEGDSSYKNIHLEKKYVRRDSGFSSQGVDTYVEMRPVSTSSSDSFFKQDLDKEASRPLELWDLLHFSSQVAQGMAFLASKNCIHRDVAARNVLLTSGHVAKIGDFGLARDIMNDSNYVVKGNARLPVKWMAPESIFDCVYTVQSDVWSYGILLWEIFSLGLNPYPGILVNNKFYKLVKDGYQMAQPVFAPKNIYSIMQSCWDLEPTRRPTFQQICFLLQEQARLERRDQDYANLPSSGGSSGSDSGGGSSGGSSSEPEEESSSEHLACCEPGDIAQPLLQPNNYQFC
Nature of the experiment: Inhibition of c-fms autophosphorylation in macrophage-like cell line BAC-1.2F5 by M-CSF stimulation (ELISA). The class given is cell-based. The note with it: BAC-1.2F5 cells, human recombinant M-CSF 50 ng/ml, read-out: c-fms autophosphorylation 50% inhibitory concentration (IC50). The method, then: Macrophage-like cell line BAC-1.2F5 which expresses c-fms as a M-CSF receptor on cell membranes (CLAUDIA M. et al., J. Cell. Physiol., 130, 420-427 (1987), “Isolation and Characterization of a Cloned Growth Factor Dependent Macrophage Cell Line, BAC1.2F5”) was cultured at 37° C. in a DMEM medium containing L-cell supernatant and 10% fetal calf serum (GIBCO BRL) in a 5% CO2 incubator until about 50 to 70% confluent. The harvested cells were inoculated into wells, each containing the same medium, in a collagen type I coat 96-well flat-bottom plate in an amount of 5.0×10^4 per well, and cultured at 37° C. for 12 hr. Thereafter, the medium was replaced with a DMEM medium containing a 0.1% fetal calf serum and cultured for 12 hr. Thereafter, a test compound dissolved in dimethyl sulfoxide was added to each well, and cells were incubated at 37° C. for one hr. Human recombinant M-CSF was added to a final concentration of 50 ng/ml, and cells were stimulated at 37° C. for 6 min. After the medium was removed, 50 μl of a solubilization buffer (20 mM HEPES (pH 7.4), 150 mM NaCl, 0.2% Triton X-100, 10% glycerol, 5 mM sodium orthovanadylate, 5 mM disodium ethylenediaminetetraacetate, and 2 mM Na4P2O7) was added thereto. The mixture was shaken at 4° C. for 2 hr to prepare a cell extract as an assay sample which was then used for an ELISA assay.
The plate for the ELISA assay was prepared as follows. Phosphate buffered saline (50 μl, pH 7.4) containing 5 μg/ml of anti-phospho-tyrosine antibody (PY20; Transduction Laboratories) was added to a microplate for ELISA (Maxisorp; purchased from NUNC), followed by standing at 4° C. overnight to be immobilized on the wells. Thereafter, each well was washed twice with 200 μl of a Ca- and Mg-free phosphate buffer containing 0.1% Tween-20 (hereinafter referred to as “PBS-T”), and 200 μl of a blocking solution (Dainippon Pharmaceutical Co. Ltd.: BlockAce) was added to each well, and the wells were then allowed to stand at room temperature for 2 hr for blocking.
Separately, phosphate buffered saline (50 μl, pH 7.4) containing 5 μg/ml of anti-phospho-tyrosine antibody (PY20; Transduction Laboratories) was added to a microplate for ELISA (Maxisorp; purchased from NUNC), followed by standing at 4° C. overnight to form a solid phase on the wells. After washing of the plate, 300 μl of a blocking solution was added, followed by standing at room temperature for 2 hr to perform blocking. After washing, the whole quantity of the cell extract was transferred to the wells, and the plate was then allowed to stand at 4° C. overnight. After washing, anti-c-fms antiserum (Upstate Biotechnology, Inc.) was allowed to react at room temperature for one hr, and, after washing, a peroxidase-labeled anti-rabbit Ig antibody (Amersham) was allowed to react at room temperature for one hr. After washing, a chromophoric substrate for peroxidase (Sumitomo Bakelite Co., Ltd.) was added thereto to initiate a reaction. After a suitable level of color development, a reaction termination solution was added to stop the reaction, and the absorbance at 450 nm was measured with a microplate reader. The c-fms phosphorylation activity for each well was determined by presuming the absorbance without the addition of the test compound and with the addition of M-CSF to be 100% c-fms phosphorylation activity and the absorbance without the addition of the test compound and M-CSF to be 0% c-fms phosphorylation activity. The concentration of the test compound was varied on several levels, the c-fms phosphorylation inhibitory rate was determined for each case, and the concentration of the test compound necessary for inhibiting 50% of c-fms phosphorylation (IC50) was calculated.

Turning to `COc1cc2nccc(Oc3ccc(NC(=O)N[C@H](C)c4ccc(F)cc4)cc3OC)c2cc1OC` [Example 24, N-{4-[(6,7-Dimethoxy-4-quinolyl)oxy]-3-methoxyphenyl}-N′-[(1R)-1-(4-fluorophenyl)ethyl]urea], the IC50 was 13.2 nM.
Turning to `COc1cc2nccc(Oc3ccc(NC(=O)NC(C)c4ccc(F)cc4)c(C)c3C)c2cc1OC` (stereo not drawn) [Example 25, N-{4-[(6,7-Dimethoxy-4-quinolyl)oxy]-2,3-dimethylphenyl}-N′-[1-(4-fluorophenyl)ethyl]urea], the IC50 is 21.9 nM.
For `COc1cc2nccc(Oc3ccc(NC(=O)N[C@@H](C)c4ccc(F)cc4)c(C)c3C)c2cc1OC` [Example 26, N-{4-[(6,7-Dimethoxy-4-quinolyl)oxy]-2,3-dimethylphenyl}-N′-[(1S)-1-(4-fluorophenyl)ethyl]urea] the value was 16.3 nM; for `COc1cc2nccc(Oc3ccc(NC(=O)N[C@H](C)c4ccc(F)cc4)c(C)c3C)c2cc1OC` [Example 27, N-{4-[(6,7-Dimethoxy-4-quinolyl)oxy]-2,3-dimethylphenyl}-N′-[(1R)-1-(4-fluorophenyl)ethyl]urea], 7.6 nM.
To `COc1cc2nccc(Oc3ccc(NC(=O)NC(C)c4ccc(F)cc4)c(F)c3)c2cc1OC` (stereo not drawn) [Example 28, N-{4-[(6,7-Dimethoxy-4-quinolyl)oxy]-2-fluorophenyl}-N′-[1-(4-fluorophenyl)ethyl]urea] belongs 6.5 nM; to `COc1cc2nccc(Oc3ccc(NC(=O)N[C@@H](C)c4ccc(F)cc4)c(F)c3)c2cc1OC` [Example 29, N-{4-[(6,7-Dimethoxy-4-quinolyl)oxy]-2-fluorophenyl}-N′-[(1S)-1-(4-fluorophenyl)ethyl]urea], 2.3 nM.
With `COc1cc2nccc(Oc3ccc(NC(=O)N[C@H](C)c4ccc(F)cc4)c(F)c3)c2cc1OC` [Example 30, N-{4-[(6,7-Dimethoxy-4-quinolyl)oxy]-2-fluorophenyl}-N′-[(1R)-1-(4-fluorophenyl)ethyl]urea], the IC50 turned out to be 3.1 nM.
For `COc1cc2nccc(Oc3ccc(NC(=O)NC(C)c4ccc(F)cc4)cc3F)c2cc1OC` (stereo not drawn) [Example 31, N-{4-[(6,7-Dimethoxy-4-quinolyl)oxy]-3-fluorophenyl}-N′-[1-(4-fluorophenyl)ethyl]urea] the value was 12.9 nM; for `COc1cc2nccc(Oc3ccc(NC(=O)N[C@@H](C)c4ccc(F)cc4)cc3F)c2cc1OC` [Example 32, N-{4-[(6,7-Dimethoxy-4-quinolyl)oxy]-3-fluorophenyl}-N′-[(1S)-1-(4-fluorophenyl)ethyl]urea], 3.5 nM.
Take `COc1cc2nccc(Oc3ccc(NC(=O)N[C@H](C)c4ccc(F)cc4)cc3F)c2cc1OC` [Example 33, N-{4-[(6,7-Dimethoxy-4-quinolyl)oxy]-3-fluorophenyl}-N′-[(1R)-1-(4-fluorophenyl)ethyl]urea]: the IC50 is 6.5 nM.
In the case of `COc1cc2nccc(Oc3ccc(NC(=O)N[C@@H](C)c4ccc(Br)cc4)cc3)c2cc1OC` [Example 34, N-[(1S)-1-(4-Bromophenyl)ethyl]-N′-{4-[(6,7-dimethoxy-4-quinolyl)oxy]phenyl}urea], the IC50 is 6.3 nM.
To `COc1cc2nccc(Oc3ccc(NC(=O)N[C@@H](C)c4ccccc4OC)cc3)c2cc1OC` [Example 51, N-{4-[(6,7-Dimethoxy-4-quinolyl)oxy]phenyl}-N′-[(1S)-1-(2-methoxyphenyl)ethyl]urea] belongs 7.6 nM; to `COc1cc2nccc(Oc3ccc(NC(=O)N[C@H](C)c4ccccc4OC)cc3)c2cc1OC` [Example 52, N-{4-[(6,7-Dimethoxy-4-quinolyl)oxy]phenyl}-N′-[(1R)-1-(2-methoxyphenyl)ethyl]urea], 5.5 nM.
To `COc1ccc([C@H](C)NC(=O)Nc2ccc(Oc3ccnc4cc(OC)c(OC)cc34)cc2)cc1` [Example 53, N-{4-[(6,7-Dimethoxy-4-quinolyl)oxy]phenyl}-N′-[(1S)-1-(4-methoxyphenyl)ethyl]urea] belongs 2.7 nM; to `COc1ccc([C@@H](C)NC(=O)Nc2ccc(Oc3ccnc4cc(OC)c(OC)cc34)cc2)cc1` [Example 54, N-{4-[(6,7-Dimethoxy-4-quinolyl)oxy]phenyl}-N′-[(1R)-1-(4-methoxyphenyl)ethyl]urea], 69.5 nM; to `COc1cc2nccc(Oc3ccc(NC(=O)N[C@H](C)c4cccc(Br)c4)c(Cl)c3)c2cc1OC` [Example 55, N-[(1R)-1-(3-Bromophenyl)ethyl]-N′-{2-chloro-4-[(6,7-dimethoxy-4-quinolyl)oxy]phenyl}urea], 45.4 nM.
For `COc1cc2nccc(Oc3cc(C)c(NC(=O)N[C@H](C)c4cccc(Br)c4)cc3C)c2cc1OC` [Example 56, N-[(1R)-1-(3-Bromophenyl)ethyl]-N′-{4-[(6,7-dimethoxy-4-quinolyl)oxy]-2,5-dimethylphenyl}urea] the value was 193 nM.
For `COc1cc2nccc(Oc3ccc(NC(=O)N[C@H](C)c4cccc(Br)c4)cc3Cl)c2cc1OC` [Example 57, N-[(1R)-1-(3-Bromophenyl)ethyl]-N′-{3-chloro-4-[(6,7-dimethoxy-4-quinolyl)oxy]phenyl}urea], the IC50 is 128 nM.
To `COc1cc2nccc(Oc3ccc(NC(=O)N[C@H](C)c4cccc(Br)c4)c(C)c3)c2cc1OC` [Example 58, N-[(1R)-1-(3-Bromophenyl)ethyl]-N′-{4-[(6,7-dimethoxy-4-quinolyl)oxy]-2-methylphenyl}urea] belongs 80.9 nM; to `COc1cc(Oc2ccnc3cc(OC)c(OC)cc23)ccc1NC(=O)N[C@H](C)c1cccc(Br)c1` [Example 59, N-[(1R)-1-(3-Bromophenyl)ethyl]-N′-{4-[(6,7-dimethoxy-4-quinolyl)oxy]-2-methoxyphenyl}urea], 20.3 nM.
To `COc1cc2nccc(Oc3ccc(NC(=O)N[C@H](C)c4cccc(Br)c4)c(C(F)(F)F)c3)c2cc1OC` [Example 60, N-[(1R)-1-(3-Bromophenyl)ethyl]-N′-[4-[(6,7-dimethoxy-4-quinolyl)oxy]-2-(trifluoromethyl)phenyl]urea] belongs 115 nM.
